According to patent US20180213771A1, “COMPOSITION, METHOD FOR PRODUCING COMPOSITION, AND PESTICIDE COMPOSITION” (Sumitomo Chemical Company, Limited, priority 2015, published 2018):

Experiment: Water solubility of the agrochemical active compound alone at 25° C.
Assay type: physicochemical

Q: Which water solubility does the source give for `CC1CC(C)(C)c2cccc(NC(=O)c3cn(C)nc3C(F)F)c21` (centres unmarked) [agrochemical active compound A, N-(1,1,3-trimethylindan-4-yl)-1-methyl-3-difluoromethylpyrazole-4-carboxylic acid amide] here?
A: The water solubility was “about 20 ppm”.

Q: With `CCS(=O)(=O)c1cccnc1-c1nc2cc(S(=O)(=O)C(F)(F)F)ccc2o1` [agrochemical active compound B, 2-[3-(Ethanesulfonyl)pyridin-2-yl]-5-(trifluoromethanesulfonyl)benzoxazole] as the molecule, how does the water solubility read?
A: Its water solubility is “about 6 ppm”.

Q: For `Cc1cccc(-n2nnn(C)c2=O)c1COc1ccn(-c2ccc(Cl)cc2)n1` [agrochemical active compound C, 1-[2-({[1-(4-Chlorophenyl)-H-pyrazol-3-yl]oxy}methyl)-3-methylphenyl]-4-methyl-5-oxo-4,5-dihydro-1H-tetrazole], which water solubility is on record?
A: The water solubility was “about 0.03 ppm”.

Q: With `CCNc1nc(CC)c(C(=O)NC(C#N)c2cccs2)s1` (centres unmarked) [ethaboxam, reference compound] as the molecule, how does the water solubility read?
A: Its water solubility is “about 5 ppm”.

Q: With `C#CCN1C(=O)COc2cc(F)c(N3C(=O)C4=C(CCCC4)C3=O)cc21` [flumioxazin, reference compound] as the molecule, how does the water solubility read?
A: The water solubility was “about 2 ppm”.
